From PubChem BioAssay AID1963961 (Molecular Pharmacology Branch, DTP, NCI, 2024)
pIC50: −log10 of the molar value.

Test system: K98450-129-R-PDC multicell spheroids, viability
Test: Anticancer human tumor K98450-129-R-PDC patient-derived colon adenocarcinoma cell line growth inhibition [PI3K]
Details: for pIC50: curve of first compound; for viability, T/C: stronger effect = lower value
Excerpt: Combinatorial screen of targeted agents with the PI3K inhibitors inavolisib, alpelisib, duvelisib, and copanlisib in multi-cell type tumor spheroids
A high-throughput screen of multi-cell type tumor spheroids was designed to identify active combinations of targeted small molecules and PI3K pathway inhibitors. Complex spheroids include a stromal component modeled by human endothelial cells (HUVEC) and fibroblasts modeled by human mesenchymal stem cells (MSCs). The concentration ranges selected for each drug and investigational agent were based upon clinically achievable concentrations if the clinical Cmax of the agent was known.
Compounds. The drugs and investigational agents: inavolisib (NSC800729), alpelisib (NSC765974), duvelisib (NSC772469), copanlisib (NSC816437), ipatasertib (NSC767898), afuresertib (NSC778305), talazoparib (NSC767125), sapanisertib (NSC764658), selumetinib (NSC741078), tovorafenib (DAY101, NSC766906), vemurafenib (NSC761431), ravoxertinib (NSC781343), sotorasib (NSC818433), MRTX1133 (NSC 836407), abemaciclib (NSC 768073), palbociclib (NSC758247), venetoclax (NSC 766270), SY5609 (NSC837396), enzalutamide (NSC755605), and darolutamide (NSC825331), were obtained from the National Cancer Institute (NCI) Developmental Therapeutics Program Chemical Repository. The FDA-approved anticancer drug set is available from the NCI Developmental Therapeutics Program. […] The stock solutions were prepared in dimethyl sulfoxide (DMSO, Sigma-Aldrich, St. Louis, MO, cat. D2650) at 800-fold the tested concentration and stored at -70 degrees C prior to their use. All drugs and investigational agents were tested over a range starting from a high concentration at or near the clinical Cmax and decreasing in half-log increments. If the clinical Cmax for an agent had not been determined, the highest concentration tested was 10 microM.
Cell Culture. All cells were maintained in an incubator at 37 degrees C and 5% CO2 with 95% humidity. The PDC lines were cultured according to standard operating procedures established by the NCI PDMR (https://pdmr.cancer.gov/sops/default.htm). All PDCs were thawed and cultured in Matrigel-coated flasks prepared with a working solution of 1X Ham's F-12 nutrient mix, without supplementation (Invitrogen, Waltham, MA, cat. 11765054), 100 U/mL penicillin-streptomycin (Invitrogen, cat. 15140122), and 2.5% Matrigel (Corning Inc., Corning, NY, cat. 354248) for the first three passages. The 354836-022-R-J1-PDC, 475296-252-R-J1-PDC, and 997726-040-R-J2-PDC lines were cultured in 6A media, which includes advanced DMEM/F-12 (Thermo Fisher Scientific, cat. 12634028), 10 mM HEPES (Thermo Fisher Scientific, cat. 15630080), 1X GlutaMAX supplement (Thermo Fisher Scientific, cat. 35050061), 0.1 mg/mL primocin (InvivoGen, San Diego, CA, cat. ant-pm-2), 10% defined fetal bovine serum, heat inactivated (HyClone Laboratories Inc., Logan, UT, cat. SH30070.03HI), 50% L-WRN conditioned media (ATCC, cat. CRL-3276), 1.25 mM N-Acetyl-L-cysteine (Sigma-Aldrich, cat. A9165), 10 mM nicotinamide (Sigma-Aldrich, cat. N0636), 1X B-27 supplement (Thermo Fisher Scientific, cat. 17504044), 1X N-2 supplement (Thermo Fisher Scientific, cat. 17502048), and 10 microM Y-27632 dihydrochloride (Tocris Bioscience, Bristol, United Kingdom, cat. 1254). The 624824-186-R-J2-PDC line was cultured in 6C/Colon 1B media, which includes all 6A media components plus 50 ng/mL human EGF recombinant protein (Thermo Fisher Scientific, cat. PHG0311). […]

[1] = second compound 0.0316 µM, first compound 0.0316 µM
[2] = second compound 0.0316 µM, first compound 0.1 µM
[3] = second compound 0.0316 µM, first compound 0.316 µM
[4] = second compound 0.0316 µM, first compound 1 µM
[5] = second compound 0.0316 µM, first compound 3.16 µM
[6] = second compound 0.0316 µM, first compound 10 µM
[7] = second compound 0.1 µM, first compound 0.0316 µM
[8] = second compound 0.1 µM, first compound 0.1 µM
[9] = second compound 0.1 µM, first compound 0.316 µM
[10] = second compound 0.1 µM, first compound 1 µM
[11] = second compound 0.1 µM, first compound 3.16 µM
[12] = second compound 0.1 µM, first compound 10 µM
[13] = second compound 0.316 µM, first compound 0.0316 µM
[14] = second compound 0.316 µM, first compound 0.1 µM
[15] = second compound 0.316 µM, first compound 0.316 µM
[16] = second compound 0.316 µM, first compound 1 µM
[17] = second compound 0.316 µM, first compound 3.16 µM
[18] = second compound 0.316 µM, first compound 10 µM
[19] = second compound 1 µM, first compound 0.0316 µM
[20] = second compound 1 µM, first compound 0.1 µM
[21] = second compound 1 µM, first compound 0.316 µM
[22] = second compound 1 µM, first compound 1 µM
[23] = second compound 1 µM, first compound 3.16 µM
[24] = second compound 1 µM, first compound 10 µM
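Note: spheroids exposed to agents for seven days before read-out.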

CC1(C)CCC(CN2CCN(c3ccc(C(=O)NS(=O)(=O)c4ccc(NCC5CCOCC5)c([N+](=O)[O-])c4)c(Oc4cnc5[nH]ccc5c4)c3)CC2)=C(c2ccc(Cl)cc2)C1 + CC(Nc1ncnc2nc[nH]c12)c1cc2cccc(Cl)c2c(=O)n1-c1ccccc1
pIC50 (second compound 0.0316 µM): 5.28
pIC50 (second compound 0.1 µM): 5.25
pIC50 (second compound 0.316 µM): 5.27
pIC50 (second compound 1 µM): 5.28
pIC50 (second compound 3.16 µM): 5.26
pIC50 (second compound 10 µM): 5.29
viability, T/C [1]: 96.2%
viability, T/C [2]: 94.7%
viability, T/C [3]: 96.2%
viability, T/C [4]: 118%
viability, T/C [5]: 84.8%
viability, T/C [6]: 6.25%
viability, T/C [7]: 100%
viability, T/C [8]: 104%
viability, T/C [9]: 105%
viability, T/C [10]: 100%
viability, T/C [11]: 97.4%
viability, T/C [12]: 3.46%
viability, T/C [13]: 135%
viability, T/C [14]: 104%
viability, T/C [15]: 94.9%
viability, T/C [16]: 98.6%
viability, T/C [17]: 94.4%
viability, T/C [18]: 3.48%
viability, T/C [19]: 87.8%
viability, T/C [20]: 116%
viability, T/C [21]: 89%
viability, T/C [22]: 88.5%
viability, T/C [23]: 87.5%
viability, T/C [24]: 3.81%
viability, T/C (second compound 3.16 µM, first compound 0.0316 µM): 85.8%
viability, T/C (second compound 3.16 µM, first compound 0.1 µM): 105%
viability, T/C (second compound 3.16 µM, first compound 0.316 µM): 90.4%
viability, T/C (second compound 3.16 µM, first compound 1 µM): 86.1%
viability, T/C (second compound 3.16 µM, first compound 3.16 µM): 95.8%
viability, T/C (second compound 3.16 µM, first compound 10 µM): 3.31%
viability, T/C (second compound 10 µM, first compound 0.0316 µM): 86.4%
viability, T/C (second compound 10 µM, first compound 0.1 µM): 87.6%
viability, T/C (second compound 10 µM, first compound 0.316 µM): 82.9%
viability, T/C (second compound 10 µM, first compound 1 µM): 75.3%
viability, T/C (second compound 10 µM, first compound 3.16 µM): 88.1%
viability, T/C (second compound 10 µM, first compound 10 µM): 3.12%

CCCS(=O)(=O)Nc1ccc(F)c(C(=O)c2c[nH]c3ncc(-c4ccc(Cl)cc4)cc23)c1F + COc1c(OCCCN2CCOCC2)ccc2c3n(c(=NC(=O)c4cnc(N)nc4)nc12)CCN3
pIC50 (second compound 0.00316 µM): 5.22
pIC50 (second compound 0.01 µM): 5.24
pIC50 (second compound 0.0316 µM): 5.26
pIC50 (second compound 0.1 µM): 5.40
pIC50 (second compound 0.316 µM): 5.57
pIC50 (second compound 1 µM): 5.78
viability, T/C (second compound 0.00316 µM, first compound 0.0316 µM): 107%
viability, T/C (second compound 0.00316 µM, first compound 0.1 µM): 105%
viability, T/C (second compound 0.00316 µM, first compound 0.316 µM): 95.1%
viability, T/C (second compound 0.00316 µM, first compound 1 µM): 120%
viability, T/C (second compound 0.00316 µM, first compound 3.16 µM): 105%
viability, T/C (second compound 0.00316 µM, first compound 10 µM): 5.65%
viability, T/C (second compound 0.01 µM, first compound 0.0316 µM): 116%
viability, T/C (second compound 0.01 µM, first compound 0.1 µM): 93%
viability, T/C (second compound 0.01 µM, first compound 0.316 µM): 93.4%
viability, T/C (second compound 0.01 µM, first compound 1 µM): 60.2%
viability, T/C (second compound 0.01 µM, first compound 3.16 µM): 93.9%
viability, T/C (second compound 0.01 µM, first compound 10 µM): 12.2%
viability, T/C [1]: 99%
viability, T/C [2]: 95.5%
viability, T/C [3]: 82.3%
viability, T/C [4]: 78.3%
viability, T/C [5]: 91.6%
viability, T/C [6]: 8.56%
viability, T/C [7]: 84%
viability, T/C [8]: 98.2%
viability, T/C [9]: 76.2%
viability, T/C [10]: 80.2%
viability, T/C [11]: 61.7%
viability, T/C [12]: 7.64%
viability, T/C [13]: 66.5%
viability, T/C [14]: 79.5%
viability, T/C [15]: 72%
viability, T/C [16]: 80.2%
viability, T/C [17]: 46.2%
viability, T/C [18]: 7.49%
viability, T/C [19]: 57.6%
viability, T/C [20]: 53.8%
viability, T/C [21]: 54.3%
viability, T/C [22]: 59.9%
viability, T/C [23]: 41.9%
viability, T/C [24]: 7.62%
